The values below come from publication PMC4478171, “Synthesis, characterization, and preclinical validation of a PET radiopharmaceutical for interrogating Aβ (β-amyloid) plaques in Alzheimer’s disease” (EJNMMI Research, 2015).

“Also recorded” adds a separate entry of the source. Read-outs that look alike come from different tables or passages of the source.

For one series, the target named is AD homogenates (Homo sapiens, UniProt P05067). As to conditions: cited from earlier work.
A further series deals with Aβ plaques. Set-up: method as in PMID 25003699. To be noted: transgenic mice; cited from earlier work.
The subject of series [1] is Aβ plaques in autopsy-confirmed AD human tissues. Set-up: method as in PMID 25003699. To be noted: cited from earlier work.
Series [2] addresses cortical Aβ plaques in AD frontal cortex sections (Homo sapiens, UniProt P05067). The experiment in a line: Autoradiography on AD frontal cortex sections with IHC correlation. The format is binding. As to conditions: 7A […] with 18F-7B 10 nM. The procedure:
Frozen AD frontal cortex sections (12 μm) were obtained using a TBS Minotome PLUS Cryostat. The tissue sections were thaw-mounted onto Superfrost Plus (Fisherbrand 12-550-15 (Fisherbrand, Leicestershire, UK)) microscope slides, allowed to air dry for 10 to 15 min, and stored at −80°C. For autoradiography, brain sections were brought to room temperature for 5 min and then pre-incubated in assay buffer (30 mM Tris-HCl, pH 7.4 + 0.1% BSA) for 10 min at RT. Sections were incubated with ^18F-7B (300 μL/slide; 10 nM) in the assay buffer for 60 min at room temperature. For determining nonspecific binding, adjacent sections were incubated in the additional presence of 2.5 μM cold ligand 7A. Sections were then washed at RT for 1 min in 30 mM Tris-HCl pH 7.4, 2 min in 70% ethanol/30 mM Tris-HCl, 1 min in 30% ethanol/30 mM Tris-HCl, and 1 min in 30 mM Tris-HCl (washing protocol using literature precedents. Sections were then dried and exposed to phosphor-imaging screen (BAS-MS 2025) for 30 min. Autoradiography images were obtained on a Fuji Bio-Imaging System FLA-7000 (Tokyo, Japan) and analyzed using MultiGauge software (Fuji, Tokyo, Japan). Following exposure to a phosphor-imaging screen, the sections were then blocked for 60 min at room temperature with 3% milk-0.25% Tween 20-PBS buffer. […]

For series [3] the following is noted: normal mice, cited from earlier work.
The conditions of series [4]: comparison values, no reference given; cited from earlier work.

AD homogenates, sequence (P05067 672-711 limits assumed): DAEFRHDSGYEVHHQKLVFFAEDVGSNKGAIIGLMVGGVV
cortical Aβ plaques in AD frontal cortex sections, sequence (P05067 672-711 limits assumed): as above

On to `CNc1ccc(/C=C/c2ccc(OCCOCCOCCF)cc2)cc1` [Florbetaben], for which, at AD homogenates, the BP is reported as 152, the Bmax is recorded as 2,431 nM and the Kd is 16 nM.

In the case of `CN(C)c1ccc(/C=C/c2nc3ccc(OCCF)cc3s2)cn1` [7A, (E)-5-(2-(6-(2-fluoroethoxy)benzo[d]thiazol-2-yl)vinyl)-N,N-dimethylpyridin-2-amine], the “BBB penetration and plaque labeling by multiphoton imaging” value in the series on Aβ plaques is “could traverse the BBB to label parenchymal plaques in the brain of transgenic mice”. The plaque types labeled result in series [1] is “labels diffuse plaques in autopsy-confirmed AD human tissues; also recorded: binding to both diffuse and fibrillary plaques”. The “inhibition of 18F-7B binding in autoradiography” value in series [2] was “binding was inhibited”.

With `CNc1ccc(/C=C/c2ccc(OCCOCCOCCF)nc2)cc1` [Florbetapir, (E)-4-(2-(6-(2-(2-(2-^18F-fluoroethoxy)ethoxy)-ethoxy)pyridin-3-yl)vinyl)-N-methyl benzenamine], the Brain uptake in series [3] (2 min) is listed as 7.33 ± 1.54 %ID/g; in series [3] (2 h) it was 1.80 ± 0.07 %ID/g. The “brain uptake ratio 2 min/2 h” value in series [3] is 4.07. Further, the “log P” value in series [4] is listed as 2.4.
